Test results reported in patent publication US7465748B2, “Amide derivative” (Astellas Pharma Inc., priority 2003, dated 2008).
Where two headings read alike, the source gives them in different places.

Tests used:
HSV-1 strain WT-51 = test: Cutaneous HSV-1 infection mouse model; format: in vivo, HR-1 hairless mouse; conditions: 10 mg/kg twice a day for 5 days from 3 hours after infection, lesion score for 17 days
Description: Using a cutaneous HSV-1 infection mouse model prepared in accordance with the method of H. Machida et al. (Antiviral Res., 1992, 17, 133-143), in vivo activity of the compounds of the invention was tested. The skin of each HR-1 hairless mouse [female, 7 weeks of age] was scratched lengthwise and breadthwise several times using a needle and a virus suspension (HSV-1 strain WT-51, 1.5×10^4 PFU/15 μl) was droped to the scarified region for infection, while anesthetized with diethyl ether
Tested compounds were administered orally as a methyl cellulose suspension, except for compounds marked with asterisk which were dissolved in 20% Cremophor EL (Nakarai Tesuku)/20% polyethylene glycol (PEG) 400/60% H2O solution, starting at 3 hours after the infection, and then at a dose of 10 mg/kg twice a day for 5 days. The symptom of the skin lesion caused by HSV-1 infection were classified in the following scores for 17 days:
Score 0: no signs of infection.
Score 1: localized, barely perceptible small vesicles.
Score 2: slight vesicle spread.
Score 3: large patches of vesicles formed.
Score 4: zosteriform vesicles.
Score 5: large patches of ulcers formed.
Score 6: zosteriform with severe large ulcers.
Score 7: hind limb paralysis or death.
The AUC value was calculated from each group's mean disease score, and the disease inhibitory rate of the group administered with each test compound to the placebo group was calculated using the AUC.

HSV-1 (strain KOS) = test: Anti-HSV-1 activity assay (MTT, MRC-5 cells); format: cell-based; conditions: HSV-1 strain KOS 50 TCID50/100 μl, 5 days culture, read-out: EC50 value (suppression of cellular death of MRC-5 cells via HSV-1 replication)
Description: 10,000 MRC-5 cells were inoculated and cultured in a 96-well microtiter plate, using the growth culture medium [Eagle MEM (Nissui) supplemented with 10% FBS] in 5% CO2 at 37° C. for 4 to 5 days until a monolayer was formed. After the cells were washed with the maintenance culture medium [Eagle MEM supplemented with 2% (v/v) FBS], 100 μl of the maintenance culture medium dissolving therein an appropriate concentration of a test reagent was added to each well. Immediately after the test drug was added, an HSV-1 (strain KOS) solution was inoculated at 50 TCID50 (50% tissue culture infectious dose)/100 μl. After the cells were cultured in 5% CO2 at 37° C. for 5 days, 20 μl of MTT solution [3-(4,5-dimethyl-2-thiazolyl)-2,5-diphenyl-2H-tetrazolium bromide; Sigma] (diluted with PBS to 7.5 mg/ml) was added to each well, for another 24-hour incubation. After the culture medium was discarded, 100 μl of a solvent (prepared by adding 10% Triton X 100 (v/v) and 0.4% hydrochloric acid to isopropanol) was added to each well, to solubilize the generated formazan. The absorbance at 540 nm or 690 nm was measured with a microplate reader. Based on the suppression ratio (%) of the cellular death of the MRC-5 cell via HSV-1 replication, the EC50 value of the test drug was calculated.

VZV (strain CaQu) = test: Anti-VZV activity assay (plaque reduction in HEF cells); format: cell-based, varicella zoster virus (VZV); conditions: human embryonic fibroblast (HEF) cells infected with VZV strain CaQu, plaque count after 3 to 4 days
Description: This assay was carried out in accordance with the method described by Shigeta S. (The Journal of Infectious Diseases, 147, 3, 576-584 (1983). Specifically, human embryonic fibroblast (HEF) cells were inoculated in a 96-well microtiter plate, using a growth culture medium [Eagle MEM (Nissui) supplemented with 10% (v/v) fetal bovine serum (FBS; Sigma)], for culturing in 5% CO2 at 37° C. for 4 days until a monolayer was formed. After washing the cells with a maintenance medium, the cells were inoculated with 100 μl/well of VZV (strain CaQu) which had been diluted to 20 to 30 pfu/100 μl with the maintenance medium (Eagle MEM supplemented with 2% FBS). The plate was centrifuged at 2,000 rpm for 20 minutes at room temperature and then incubated at 37° C. for 3 hours in an atmosphere of 5% CO2 to infect with VZV. After washing three times with the maintenance medium, 100 μl of each test drug diluted to an appropriate concentration with the maintenance medium was added to each well. After culturing the cells at 37° C. for 3 to 4 days in an atmosphere of 5% CO2, the cells were fixed with 100 μl/well of 10% formalin/PBS for 2 to 3 hours. […] After discarding the fixing solution and culture supernatant and subsequently washing the plate with water, a staining solution (0.025% Crystal Violet) was added at 50 μl/well for staining for 2 to 3 minutes, and then, the plate was washed with water and dried at 37° C. Cellular death is induced in the HEF cells infected with VZV, so that plaques of the dead cells are formed in the monolayer of the HEF cells.

[1] = oral, methyl cellulose suspension
[2] = asterisk: oral, dissolved in 20% Cremophor EL/20% PEG 400/60% H2O solution
[3] = Human alphaherpesvirus 1, MRC5, 120 h
[4] = Human alphaherpesvirus 3, read-out: EC50 value (concentration to inhibit 50% of the plaques)

Nc1nc(-c2ccc(NC(=O)CN(C(=O)c3ccc(F)cc3)c3ccc4ncsc4c3)cc2)cs1 [Comparative Compound A, reference compound]
Inhibitory activity (%) (disease inhibitory rate vs placebo from AUC of mean disease score) (HSV-1 strain WT-51; [1]): 38%

COc1ccc(N(CC(=O)Nc2ccc(-c3csc(N)n3)cc2)C(=O)C2CCS(=O)(=O)CC2)cc1 [Comparative Compound B, reference compound]
Inhibitory activity (%) (disease inhibitory rate vs placebo from AUC of mean disease score) (HSV-1 strain WT-51; [1]): 2%

COc1ccc(N(CC(=O)Nc2ccc(-c3csc(N)n3)cc2)C(=O)C2CCC(O)CC2)cc1 (stereo not drawn) [Comparative Compound C, reference compound]
Inhibitory activity (%) (disease inhibitory rate vs placebo from AUC of mean disease score) (HSV-1 strain WT-51; [1]): 44%

Nc1nc(-c2ccc(NC(=O)CN(C(=O)C3CCS(=O)(=O)CC3)c3ccc4c(c3)CCC4)cc2)cs1 [Comparative Compound D, reference compound]
Inhibitory activity (%) (disease inhibitory rate vs placebo from AUC of mean disease score) (HSV-1 strain WT-51; [1]): 43%

Cc1cccc(C)c1N(CC(=O)Nc1ccc(-c2cocn2)cc1)C(=O)C1CCS(=O)(=O)CC1 [Example 1, N-(2,6-dimethylphenyl)-N-(2-([4-(1,3-oxazol-4-yl)phenyl]amino)-2-oxoethyl)tetrahydro-2H-thiopyran-4-carboxamide 1,1-dioxide]
Inhibitory activity (%) (disease inhibitory rate vs placebo from AUC of mean disease score) (HSV-1 strain WT-51; [2]): *93%

Cc1ccc(N(CC(=O)Nc2ccc(-c3cocn3)cc2)C(=O)C2CCS(=O)(=O)CC2)c(C)c1 [Example 6, N-(2,4-dimethylphenyl)-N-(2-{[4-(1,3-oxazol-4-yl)phenyl]amino}-2-oxoethyl)tetrahydro-2H-thiopyran-4-carboxamide 1,1-dioxide]
Inhibitory activity (%) (disease inhibitory rate vs placebo from AUC of mean disease score) (HSV-1 strain WT-51; [1]): 92%

O=C(CN(C(=O)C1CCS(=O)(=O)CC1)c1ccc2c(c1)CCC2)Nc1ccc(-c2cocn2)cc1 [Example 11, N-(2,3-dihydro-1H-inden-5-yl)-N-(2-{[4-(1,3-oxazol-4-yl)phenyl]amino)-2-oxoethyl)tetrahydro-2H-thiopyran-4-carboxamide 1,1-dioxide]
EC50 (HSV-1 (strain KOS); [3]): 40 nM | EC50 (VZV (strain CaQu); [4]): 60 nM

Cc1ccc(N(CC(=O)Nc2ccc(-c3cocn3)cc2)C(=O)C2CCS(=O)(=O)CC2)cc1F [Example 14, N-(3-fluoro-4-methylphenyl)-N-(2-{[4-(1,3-oxazol-4-yl)phenyl]amino)-2-oxoethyl)tetrahydro-2H-thiopyran-4-carboxamide 1,1-dioxide]
Inhibitory activity (%) (disease inhibitory rate vs placebo from AUC of mean disease score) (HSV-1 strain WT-51; [1]): 98%

Cc1cccc(C)c1N(CC(=O)Nc1ccc(-c2ncon2)cc1)C(=O)C1CCS(=O)(=O)CC1 [Example 27, N-(2,6-dimethylphenyl)-N-(2-([4-<(1,2,4-oxadiazol-3-yl)phenyl]amino}-2-oxoethyl)tetrahydro-2H-thiopyran-4-carboxamide 1,1-dioxide]
EC50 (HSV-1 (strain KOS)): 60 nM | EC50 (VZV (strain CaQu); read-out: EC50 value (concentration to inhibit 50% of the plaques)): 100 nM

Cc1cc(N(CC(=O)Nc2ccc(-c3ncon3)cc2)C(=O)C2CCS(=O)(=O)CC2)ccc1Cl [Example 37, N-(4-chloro-3-methylphenyl)-N-(2-{[4-(1,2,4-oxadiazol-3-yl)phenyl]amino)-2-oxoethyl)tetrahydro-2H-thiopyran-4-carboxamide 1,1-dioxide]
Inhibitory activity (%) (disease inhibitory rate vs placebo from AUC of mean disease score) (HSV-1 strain WT-51; [1]): 100%

Cc1cccc(C)c1N(CC(=O)Nc1ccc(-n2nccn2)cc1)C(=O)C1CCS(=O)(=O)CC1 [Example 98]
Inhibitory activity (%) (disease inhibitory rate vs placebo from AUC of mean disease score) (HSV-1 strain WT-51; [2]): *95% | EC50 (HSV-1 (strain KOS); [3]): 42 nM | EC50 (VZV (strain CaQu); [4]): 140 nM

Cc1cccc(C)c1N(CC(=O)Nc1ccc(-c2ccccn2)cc1)C(=O)C1CCS(=O)(=O)CC1 [Example 125]
Inhibitory activity (%) (disease inhibitory rate vs placebo from AUC of mean disease score) (HSV-1 strain WT-51; [2]): *80% | EC50 (HSV-1 (strain KOS); [3]): 28 nM | EC50 (VZV (strain CaQu); [4]): 190 nM
